From patent publication US9399647B2, “Proteasome activity modulating compounds” (Proteostasis Therapeutics, Inc., priority 2012, dated 2016)

These molecules were tested against USP14 (Homo sapiens, UniProt P54578) (assay: USP14 inhibition assay). Details: average value from three experimental determinations; read-out: USP14 IC50.
Type: biochemical
Text: The IC50 values in the Table below represent the average value from three experimental determinations.
These IC50 values represent the average value from three experimental determinations.

USP14, sequence (P54578 whole entry): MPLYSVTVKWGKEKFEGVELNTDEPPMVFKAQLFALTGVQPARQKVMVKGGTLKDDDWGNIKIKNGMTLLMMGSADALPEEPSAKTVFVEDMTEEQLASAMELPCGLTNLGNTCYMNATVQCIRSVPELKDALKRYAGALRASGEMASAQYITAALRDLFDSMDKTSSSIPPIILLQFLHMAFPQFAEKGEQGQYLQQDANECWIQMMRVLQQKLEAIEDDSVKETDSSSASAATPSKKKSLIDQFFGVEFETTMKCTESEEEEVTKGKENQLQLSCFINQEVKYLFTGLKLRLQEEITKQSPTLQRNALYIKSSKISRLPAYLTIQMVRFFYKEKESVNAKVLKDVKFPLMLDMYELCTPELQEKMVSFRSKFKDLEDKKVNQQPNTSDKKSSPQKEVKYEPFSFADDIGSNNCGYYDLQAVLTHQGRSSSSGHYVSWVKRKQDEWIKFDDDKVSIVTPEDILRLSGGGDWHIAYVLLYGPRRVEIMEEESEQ
USP14, sequence (Q13200 whole entry partner): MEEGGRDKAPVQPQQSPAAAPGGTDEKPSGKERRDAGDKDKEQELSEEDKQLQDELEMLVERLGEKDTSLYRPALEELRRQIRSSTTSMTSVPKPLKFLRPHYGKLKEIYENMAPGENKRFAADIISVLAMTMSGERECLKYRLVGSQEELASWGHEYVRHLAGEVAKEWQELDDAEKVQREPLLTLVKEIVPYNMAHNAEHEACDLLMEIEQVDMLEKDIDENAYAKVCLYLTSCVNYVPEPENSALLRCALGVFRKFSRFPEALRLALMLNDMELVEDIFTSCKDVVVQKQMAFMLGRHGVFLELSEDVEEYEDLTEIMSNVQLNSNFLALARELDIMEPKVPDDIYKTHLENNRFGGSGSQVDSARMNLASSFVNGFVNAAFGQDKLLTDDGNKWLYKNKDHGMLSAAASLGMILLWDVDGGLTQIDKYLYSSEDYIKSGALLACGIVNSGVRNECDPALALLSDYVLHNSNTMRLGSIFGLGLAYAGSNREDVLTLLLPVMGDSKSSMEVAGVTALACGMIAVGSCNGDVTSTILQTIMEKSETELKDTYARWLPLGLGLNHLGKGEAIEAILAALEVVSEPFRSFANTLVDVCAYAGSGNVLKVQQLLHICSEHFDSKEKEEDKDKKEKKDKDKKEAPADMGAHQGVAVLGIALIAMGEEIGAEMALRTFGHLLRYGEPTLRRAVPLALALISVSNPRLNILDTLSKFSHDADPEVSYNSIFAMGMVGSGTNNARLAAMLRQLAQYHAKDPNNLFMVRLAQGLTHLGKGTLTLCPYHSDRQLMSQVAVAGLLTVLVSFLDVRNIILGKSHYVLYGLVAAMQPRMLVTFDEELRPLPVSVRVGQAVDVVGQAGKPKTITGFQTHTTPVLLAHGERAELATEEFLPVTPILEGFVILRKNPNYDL
USP14, sequence (P35998 whole entry partner): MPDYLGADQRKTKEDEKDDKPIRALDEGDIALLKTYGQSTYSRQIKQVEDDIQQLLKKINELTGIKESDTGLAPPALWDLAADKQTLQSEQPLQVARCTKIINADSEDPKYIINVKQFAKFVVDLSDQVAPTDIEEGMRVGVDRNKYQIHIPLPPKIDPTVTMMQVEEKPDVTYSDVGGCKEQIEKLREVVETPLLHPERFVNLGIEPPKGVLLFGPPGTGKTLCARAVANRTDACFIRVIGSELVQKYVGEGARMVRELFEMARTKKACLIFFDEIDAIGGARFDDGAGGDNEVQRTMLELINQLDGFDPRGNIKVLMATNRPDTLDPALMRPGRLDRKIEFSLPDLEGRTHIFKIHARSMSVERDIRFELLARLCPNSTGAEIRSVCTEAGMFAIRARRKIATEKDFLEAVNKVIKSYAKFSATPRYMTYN

| SMILES | IC50 |
| --- | --- |
| CNC(=O)Cc1nc(N(C)C2CC2)c2c3c(sc2n1)CCCC3 [Compound 1, 2-(4-(Cyclopropyl(methyl)amino)-5,6,7,8-tetrahydrobenzo[4,5]thieno[2,3-d]pyrimidin-2-yl)-N-methylacetamide] | 1.1 µM |

Same assay, conditions: average value from three experimental determinations; reported as potency bands; read-out: IC50 (USP14 inhibition)

| SMILES | IC50 |
| --- | --- |
| CN(C)C(=O)Cc1nc(N2CCCC2)c2c3c(sc2n1)CCCC3 [Compound 42, N,N-Dimethyl-2-(4-pyrrolidin-1-yl-5,6,7,8-tetrahydro-benzo[4,5]thieno[2,3-d]pyrimidin-2-yl)-acetamide] | > 5 µM |
| CN(c1nc(CC(=O)N2CCC(F)(F)C2)nc2sc3c(c12)CCCC3)C1CC1 [Compound 7, 2-[4-(Cyclopropyl-methyl-amino)-5,6,7,8-tetrahydro-benzo[4,5]thieno[2,3-d]pyrimidin-2-yl]-1-(3,3-difluoro-pyrrolidin-1-yl)-ethanone] | 1 to 5 µM |
| CN(c1nc(CC(=O)N2CC[C@H](C(C)(C)O)C2)nc2sc3c(c12)CCCC3)C1CC1 [Compound 20, (S)-2-(4-(Cyclopropyl(methyl)amino)-5,6,7,8-tetrahydrobenzo[4,5]thieno[2,3-d]pyrimidin-2-yl)-1-(3-(2-hydroxypropan-2-yl)pyrrolidin-1-yl)ethanone] | < 1 µM |
| CCOC(=O)Cc1nc(N(C)C(C)C)c2c3c(sc2n1)CCCC3 [Compound 41, [4-(Isopropyl-methyl-amino)-5,6,7,8-tetrahydro-benzo[4,5]thieno[2,3-d]pyrimidin-2-yl]-acetic acid ethyl ester] | > 5 µM |
| CN(c1nc(CC(=O)N2CCC(F)(F)CC2)nc2sc3c(c12)CCCC3)C1CC1 [Compound 11, 2-[4-(Cyclopropyl-methyl-amino)-5,6,7,8-tetrahydro-benzo[4,5]thieno[2,3-d]pyrimidin-2-yl]-1-(4,4-difluoro-piperidin-1-yl)-ethanone] | 1 to 5 µM |
| CCNC(=O)Cc1nc(N(C)C2CC2)c2c3c(sc2n1)CCCC3 [Compound 34, 2-[4-(Cyclopropyl-methyl-amino)-5,67,8-tetrahydro-benzo[4,5]thieno[2,3-d]pyrimidin-2-yl]-N-ethyl-acetamide] | 1 to 5 µM |
| CN1CCN(C(=O)Cc2nc(N(C)C3CC3)c3c4c(sc3n2)CCCC4)CC1 [Compound 10, 2-[4-(Cyclopropyl-methyl-amino)-5,6,7,8-tetrahydro-benzo[4,5]thieno[2,3-d]pyrimidin-2-yl]-1-(4-methyl-piperazin-1-yl)-ethanone] | < 1 µM |
| CN(c1nc(CCC(=O)O)nc2sc3c(c12)CCCC3)C1CC1 [Compound 47, 3-[4-(Cyclopropyl-methyl-amino)-5,6,7,8-tetrahydro-[1]benzothiopheno[2,3-d]pyrimidin-2-yl]-propionic acid] | 1 to 5 µM |
| CN(C)C(=O)Cc1nc(N(C)C2CC2)c2c3c(sc2n1)CCCCC3 [Compound 53, 2-[4-(Cyclopropyl-methyl-amino)-6,7,8,9-tetrahydro-5H-10-thia-1,3-diaza-benz[a]azulen-2-yl]-N,N-dimethyl-acetamide] | 1 to 5 µM |
| CC(C)N(C)c1nc(CC(=O)O)nc2sc3c(c12)CCCC3 [Compound 46, [4-(Isopropyl-methyl-amino)-5,6,7,8-tetrahydro-benzo[4,5]thieno[2,3-d]pyrimidin-2-yl]-acetic acid] | > 5 µM |
| CN(c1nc(CC(=O)NCCc2ccccn2)nc2sc3c(c12)CCCC3)C1CC1 [Compound 17] | 1 to 5 µM |
| CN(c1nc(CC(=O)N2CC[C@@H](C(C)(C)O)C2)nc2sc3c(c12)CCCC3)C1CC1 [Compound 37, 2-[4-(Cyclopropyl-methyl-amino)-5,6,7,8-tetrahydro-benzo[4,5]thieno[2,3-d]pyrimidin-2-yl]-1-[(R)-3-(1-hydroxy-1-methyl-ethyl)-pyrrolidin-1-yl]-ethanone] | < 1 µM |
| CN(c1nc(CC(=O)N2CCCC2)nc2sc3c(c12)CCCC3)C1CC1 [Compound 6, 2-[4-(Cyclopropyl-methyl-amino)-5,6,7,8-tetrahydro-benzo[4,5]thieno[2,3-d]pyrimidin-2-yl]-1-pyrrolidin-1-yl-ethanone] | < 1 µM |
| CN(c1nc(CC(=O)N2CCC(S(C)(=O)=O)C2)nc2sc3c(c12)CCCC3)C1CC1 (stereo not drawn) [Compound 25, 2-[4-(Cyclopropyl-methyl-amino)-5,6,7,8-tetrahydro-benzo[4,5]thieno[2,3-d]pyrimidin-2yl]-1-(3-methanesulfonyl-pyrrolidin-1-yl)-ethanone] | < 1 µM |
